Source: US20240085425A1, “BIOMARKER AND APPLICATION THEREOF” (ADLAI NORTYE BIOPHARMA CO., LTD., priority 2022, published 2024)
Residues, ends and D or L forms follow the SMILES beside them. *: point of attachment. Cbz = O=C(OCc1ccccc1)*

Legend:
Format in all cases: cell-based
[1] = tested on: non-phosphorylated β-catenin; assay: Western blot of non-phosphorylated β-catenin content in DU4475 cells; details: overnight, read-out: Non-phosphorylated β-catenin content inhibition IC50
Description: (§1) The Wnt signaling pathway is a key pathway for abnormal tumor growth. In colon cancer, liver cancer, pancreatic cancer and other cancers, a large number of patients have abnormal activation of the Wnt signaling pathway. The Wnt signaling pathway depends on the fine balance of β-catenin protein level. When Wnt signaling is not activated, β-catenin is phosphorylated by CK1 and APC/Axin/GSK-3β complexes, and the β-catenin protein is kept at a low level through ubiquitin-dependent proteasome degradation. When the Wnt signaling pathway is activated, β-catenin maintains a stable state of non-phosphorylation, and non-phosphorylated β-catenin can be transported into the nucleus through Rac1 and other factors, and plays a transcriptional regulatory role by binding to LEF/TCF transcription factors in the nucleus, activates downstream target genes such as C-myc and Cyclin D1, and promotes cell proliferation. Therefore, abnormal activation of the Wnt signaling pathway in tumor cells will lead to abnormal proliferation of tumors. […]
(§2) Add 500 μL of the compound with the highest concentration shown in FIG. 1 to each well of the 6-well cell culture plate, and make a 10-fold gradient dilution of the compound concentration. […] Load the protein sample directly to the SDS-PAGE gel for electrophoresis separation, transfer the protein on the SDS-PAGE gel to the PVDF membrane; after the transfer was completed, the protein was blocked by Western blocking solution, then Rabbit anti-β-catenin non-phospho S37/After T41 (ab278503) was added and the protein was incubated at room temperature for one hour and washed, the content of non-phosphorylated β-catenin was detected by incubation with Goat Anti-Rabbit IgG H&L (HRP) (ab6721). […]

[2] = tested on: non-phosphorylated β-catenin; assay: Western blot of non-phosphorylated β-catenin content in Colo205 cells
Description: The Wnt signaling pathway is a key pathway for abnormal tumor growth. In colon cancer, liver cancer, pancreatic cancer and other cancers, a large number of patients have abnormal activation of the Wnt signaling pathway. The Wnt signaling pathway depends on the fine balance of β-catenin protein level. When Wnt signaling is not activated, β-catenin is phosphorylated by CK1 and APC/Axin/GSK-3β complexes, and the β-catenin protein is kept at a low level through ubiquitin-dependent proteasome degradation. When the Wnt signaling pathway is activated, β-catenin maintains a stable state of non-phosphorylation, and non-phosphorylated β-catenin can be transported into the nucleus through Rac1 and other factors, and plays a transcriptional regulatory role by binding to LEF/TCF transcription factors in the nucleus, activates downstream target genes such as C-myc and Cyclin D1, and promotes cell proliferation. Therefore, abnormal activation of the Wnt signaling pathway in tumor cells will lead to abnormal proliferation of tumors. In order to explore the inhibitory mechanism of the compound on the proliferation of tumor cell lines, the compound AN10250399, AN10250421 or AN10250484 was used to treat sensitive cells Colo205, DU4475 and HepG2, and Western blot was used to detect the content of non-phosphorylated β-catenin in the Wnt pathway to clarify the effect of the compound on content of the non-phosphorylated β-catenin.
Add 500 μL of the compound with the highest concentration shown in FIG. 1 to each well of the 6-well cell culture plate, and make a 10-fold gradient dilution of the compound concentration. Then 500 μL of 10^6 Colo205, DU4475 and HepG2 or 500 μL of medium were inoculated into each well, and corresponding solvent treatment was performed simultaneously as negative control wells. The cells were placed in a 5% CO2 cell incubator, cultured overnight at 37° C. The culture medium was removed, washed once with PBS, 200 μL of RIPA buffer containing protease inhibitors was added to each well, and the protein lysate was collected after lysing on ice for 20 min. Add an appropriate amount of concentrated SDS-PAGE protein loading buffer to the collected protein lysate samples, and heat at 100° C. or in a boiling water bath for 3-5 minutes to fully denature the protein. Load the protein sample directly to the SDS-PAGE gel for electrophoresis separation, transfer the protein on the SDS-PAGE gel to the PVDF membrane; after the transfer was completed, the protein was blocked by Western blocking solution, then Rabbit anti-β-catenin non-phospho S37/After T41 (ab278503) was added and the protein was incubated at room temperature for one hour and washed, the content of non-phosphorylated β-catenin was detected by incubation with Goat Anti-Rabbit IgG H&L (HRP) (ab6721). As a control, glyceraldehyde-3-phosphate dehydrogenase (GAPDH) was used as an internal standard protein

[3] = tested on: non-phosphorylated β-catenin; assay: Western blot of non-phosphorylated β-catenin content in HepG2 cells; details: overnight, read-out: Non-phosphorylated β-catenin content inhibition IC50
Description: as §1, §2

[4] = tested on: non-phosphorylated β-catenin; assay: Non-phosphorylated β-catenin content in Colo205-LUC-TCF/LEF cells, compound plus MG132; details: 200 nM compound plus 2 μM MG132, 4 hours, FIG. 2
Procedure: Add 500 ul medium containing 200 nM compound plus 2 μM MG132 or 200 nM compound plus control solvent to each well of a 6-well cell culture plate, then add 500 ul containing 10^6 Colo205-LUC-TCF/LEF cells respectively, and incubate for 4 hours Finally, the protein was collected to detect the content of non-phosphorylated β-catenin.

Compound | IC50 [1] [nM] | Effect on content of non-phosphorylated β-catenin (active β-catenin), in words ([2]; FIG. 1) | IC50 ([2]; overnight, Western blot, read-out: Non-phosphorylated β-catenin content inhibition IC50) [nM] | IC50 [3] [nM] | Effect of MG132 on the reduction of non-phosphorylated β-catenin content caused by AN10250484 [4]
Cc1nc(NCc2ccc(Oc3cnc(C(F)(F)F)nc3)nc2)nc2c1NC(=O)[C@H](C)N2C [AN10250421] | 2.2 | decrease the content of non-phosphorylated β-catenin | 10 | 51.6 | –
CC(C)C[C@@H](C=O)NC(=O)[C@H](CC(C)C)NC(=O)[C@H](CC(C)C)NC(=O)OCc1ccccc1 [MG132] (Cbz-Leu-Leu-Leu-aldehyde) | – | – | – | – | reverses the reduction of the content of non-phosphorylated β-catenin
